Patent publication US4579866A, “Phenylacetamides as anti-allergy, anti-asthma and anti-inflammatory agents” (USV Pharmaceutical Corp., priority 1984, dated 1986)

Assays:
LTC4 = experiment: Antagonism of leukotriene C4 binding (guinea pig peripheral lung strips, contraction); type: cell-based; settings: Cavia porcellus, leukotriene C4 usually 0.2 nM, 37° C., read-out: ANTAGONISM OF LTC4 BINDING, I50
Procedure: Protocol for Antagonism of Leukotrines C-4 Binding
Peripheral strips of guinea pig lungs are prepared and hung in tissue baths according to the procedure described by Drazen et al. (Proc. Nat'l. Acad. Sci., U.S.A. 77, 4354-4358, 1980). Male guinea pigs (Charles River, 250-400 g) are sacrificed by cervical dislocation and their lungs rapidly removed. The individual lobes are dissected free and rinsed in Assay Buffer (118 mM NaCl, 5.4 mM KCl, 2.5 mM CaCl2, 25 mM […], 1 mM MgSO4, 1 mM NaH2 PO4, 11 mM glucose) which is continuously aerated with 95% oxygen/5% carbon dioxide. After the lobes are extensively rinsed, a strip of lung tissue, approximately 2 mm thick and 5-8 cm long, is cut off the sharpest and most peripheral portion of each lobe. The peripheral edge is cut almost completely around the outside of the lobe so that a U-shaped strip is obtained. These strips are rinsed in Assay Buffer and then connected with surgical silk thread to the support rods of the water jacketed tissue baths (10 ml chambers). The other ends of the strips are connected to Gould UC3 pressure transducers which had been previously calibrated. The tissue baths are aerated with 95% oxygen/5% carbon dioxide and maintained at 37° C. The tension on these strips are adjusted to 500 mg. The tissues are initially washed with fresh buffer every 5-10 minutes for about 30 minutes and thereafter washed with fresh assay buffer at least every 20 minutes.
After the tissue had been repeatedly washed and allowed to equilibrate in the tissue baths, they are challenged with 1 μM histamine to standardize the contractions for each tissue.
Responses of each tissue to a predetermined concentration (usually 0.2 nM) of leukotriene C4 are then obtained. Compounds are then tested for their ability to antagonize to leukotriene C4 immediately upon challenge.
(§1) If the percentage of inhibition exceeds 50%, the compounds are then evaluated in terms of response over a range of concentrations. From a plot of response against concentration, the I50 value is obtained. The I50 value is the concentration at which 50% inhibition is observed.

RAT 5-LIPOXYGENASE = biological target: T1, RAT 5-LIPOXYGENASE (Rattus norvegicus, UniProt P12527); experiment: Biosynthesis of 5-HETE by rat polymorphonuclear leukocytes in vitro (inhibition of rat 5-lipoxygenase); type: cell-based; settings: rat neutrophils, A23187, 3 minutes at 30° C.; concentration at which 50% inhibition is observed; read-out: INHIBITION OF RAT 5-LIPOXYGENASE, I50
T1 construct: A suspension of rat neutrophils in buffer; endogenous in cells; host or cells: rat neutrophils (polymorphonuclear leukocytes)
T1 sequence (P12527 1-673): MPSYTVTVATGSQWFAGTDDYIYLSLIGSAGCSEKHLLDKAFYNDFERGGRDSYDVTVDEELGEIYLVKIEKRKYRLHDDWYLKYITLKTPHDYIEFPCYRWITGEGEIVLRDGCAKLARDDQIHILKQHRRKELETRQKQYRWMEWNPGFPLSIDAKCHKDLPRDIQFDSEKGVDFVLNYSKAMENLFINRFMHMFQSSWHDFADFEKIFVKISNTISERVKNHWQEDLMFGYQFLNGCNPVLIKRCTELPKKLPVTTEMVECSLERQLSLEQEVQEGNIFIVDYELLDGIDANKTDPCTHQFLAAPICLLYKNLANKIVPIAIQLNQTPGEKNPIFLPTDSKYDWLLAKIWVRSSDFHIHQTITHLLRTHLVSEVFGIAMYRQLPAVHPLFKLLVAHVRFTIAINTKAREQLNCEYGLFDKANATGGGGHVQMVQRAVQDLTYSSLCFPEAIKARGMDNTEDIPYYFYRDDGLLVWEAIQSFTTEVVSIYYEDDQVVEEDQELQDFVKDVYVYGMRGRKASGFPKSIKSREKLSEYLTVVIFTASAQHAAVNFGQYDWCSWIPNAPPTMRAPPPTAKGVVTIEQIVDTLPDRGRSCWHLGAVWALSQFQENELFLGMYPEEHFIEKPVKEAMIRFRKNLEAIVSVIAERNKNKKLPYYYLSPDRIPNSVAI
Procedure: Protocol for the Biosynthesis of 5-HETE by Rat Polymorphonuclear Leukocytes In Vitro
A suspension of rat neutrophils in buffer is incubated for 3 minutes at 30° C. with [^14 C]-arachidonic acid (AA) and calcium ionophore A23187. Citric Acid (2M) NDGA (10 mM) is used to quench the reaction. Following the addition of a trace amount of (^3 H)-5-HETE together with an excess of unlabeled 5-HETE to each tube, the mixture is extracted with chloroform/methanol. The organic layer is washed with dilute acid and an aliquot is transferred to glass tubes and dried. The residue is dissolved in a small volume of chloroform and an aliquot is spotted on silica gel TLC sheets, which are developed with an ethyl acetate/isoctane/water/acetic acid solvent system. The 5-HETE spots are visualized under UV light, cut out and placed in scintillation vials for counting. After adjusting for the extraction efficiency, the amount (pmole) of [^14 C]-5-HETE in each of the tubes is quantitated. The net pmoles of 5-HETE are obtained by subtracting the pmoles of 5-HETE in the tubes containing buffer alone (blank) from the pmoles of 5-HETE in the tubes containing […]. The ability of the test compounds to modulate the activity of this enzyme is determined by a decrease or increase in the net amount of 5-HETE produced.
as §1

| SMILES | IC50 (LTC4) | IC50 (RAT 5-LIPOXYGENASE) |
| --- | --- | --- |
| CCCOc1ccc(CC(=O)N[C@H](Cc2ccccc2)C(=O)OC)cc1Cl [3-Chloro-4-n-propyloxyphenylacetyl-D-phenylalanine methyl ester] | 9 µM | 0.8 µM |
| C#CCOc1ccc(CC(=O)N[C@H](Cc2ccccc2)C(=O)OC)cc1Cl [3-Chloro-4-propargyloxyphenylacetyl-D-phenylalanine methyl ester] | 12 µM | 0.5 µM |
| CN(CC(O)c1ccccc1)C(=O)Cc1ccc(OCCc2ccccc2)c(Cl)c1 (centres unmarked) [N--[3-Chloro-4-phenylethyloxyphenylacetyl]-N--methyl-2-hydroxy-2-phenyl-ethyl-amine] | 5 µM | 3 µM |
| C=CCOc1ccc(CC(=O)N(C)CCc2ccccc2)cc1Cl [N--[4-Alloyoxy-3-chlorophenylacetyl]-N--methyl-2-phenylethylamine] | 3 µM | 2.4 µM |
